The values that follow come from patent US20250312352A1, “GLP-1R MODULATING COMPOUNDS” (Gilead Sciences, Inc., priority 2021, published 2025).

The target in the experiment is T1, GLP-1R (Homo sapiens, UniProt P43220).
T1 construct: host or cells: CHO cells
T1 sequence (P43220 24-463): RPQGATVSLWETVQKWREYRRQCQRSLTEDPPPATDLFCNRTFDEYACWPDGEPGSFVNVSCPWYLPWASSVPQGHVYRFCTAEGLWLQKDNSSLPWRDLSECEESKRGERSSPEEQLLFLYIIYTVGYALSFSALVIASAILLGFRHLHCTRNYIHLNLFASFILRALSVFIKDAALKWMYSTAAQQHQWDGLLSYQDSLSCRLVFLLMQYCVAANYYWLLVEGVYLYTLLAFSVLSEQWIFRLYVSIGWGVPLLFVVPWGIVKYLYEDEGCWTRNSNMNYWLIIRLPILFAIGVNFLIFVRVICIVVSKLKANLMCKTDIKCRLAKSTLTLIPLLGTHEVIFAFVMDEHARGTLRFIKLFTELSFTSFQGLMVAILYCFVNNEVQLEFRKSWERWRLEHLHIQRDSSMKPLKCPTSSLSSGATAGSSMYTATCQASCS
The experiment in a line: GLP-1R activation cAMP assay (Assay 1 or Assay 2). Particulars: cAMP increase in CHO cells stably expressing GLP-1R; compounds run on one of the two cAMP assays. Type of experiment: cell-based. The procedure, abridged:
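EC50 values come from a sigmoidal fit of HTRF-detected cAMP rise versus log agonist concentration. GLP-1R-expressing CHO cells, equilibrated 1 h at 37 °C in HBSS with HEPES and BSA, received a 10-point compound dose series for 30 min before detection.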
`CNC(=O)c1cc(Cl)c(COc2cccc(-c3cc(Cl)c(Cc4nc5c(F)cc(C(=O)O)cc5n4CCOC)cc3F)n2)cn1` [Example 386, 2-(2-chloro-4-(6-((4-chloro-6-(methylcarbamoyl)pyridin-3-yl)methoxy)pyridin-2-yl)-5-fluorobenzyl)-4-fluoro-1-(2-methoxyethyl)-1H-benzo[d]imidazole-6-carboxylic acid] came in with an EC50 of 0.121 nM. In the case of `O=C(O)c1ccc2nc(Cc3cc(F)c(-c4cccc(OCc5ccn(C6COC6)n5)n4)cc3F)n(C[C@@H]3CCO3)c2c1` [Example 10, (S)-2-(2,5-difluoro-4-(6-((1-(oxetan-3-yl)-1H-pyrazol-3-yl)methoxy)pyridin-2-yl)benzyl)-1-(oxetan-2-ylmethyl)-1H-benzo[d]imidazole-6-carboxylic acid], a half-maximal effect (EC50) was put at 7.55 nM. In the case of `COc1nnc(COc2cccc(-c3cc(F)c(Cc4nc5c(F)cc(C(=O)O)cc5n4CC4(CF)CC4)c(F)c3F)n2)s1` [Example 280, 4-fluoro-1-((1-(fluoromethyl)cyclopropyl)methyl)-2-(2,3,6-trifluoro-4-(6-((5-methoxy-1,3,4-thiadiazol-2-yl)methoxy)pyridin-2-yl)benzyl)-1H-benzo[d]imidazole-6-carboxylic acid], the EC50 came out at 0.067 nM.

`N#Cc1csc(COc2cccc(-c3cc(F)c(Cc4nc5ccc(C(=O)O)cc5n4C[C@@H]4CCO4)cc3F)n2)n1` [Example 23, (S)-2-(4-(6-((4-cyanothiazol-2-yl)methoxy)pyridin-2-yl)-2,5-difluorobenzyl)-1-(oxetan-2-ylmethyl)-1H-benzo[d]imidazole-6-carboxylic acid] returned an EC50 of 1.43 nM. Molecule `COc1cc(C#Cc2cnn(C)c2)ccc1COc1cccc(-c2cc(F)c(Cc3nc4ccc(C(=O)O)cc4n3C[C@@H]3CCO3)cc2F)n1` [Example 304, (S)-2-(2,5-difluoro-4-(6-((2-methoxy-4-((1-methyl-1H-pyrazol-4-yl)ethynyl)benzyl)oxy)pyridin-2-yl)benzyl)-1-(oxetan-2-ylmethyl)-1H-benzo[d]imidazole-6-carboxylic acid] returned an EC50 of 0.524 nM. For the molecule `O=C(O)c1ccc2nc(Cc3cc(F)c(-c4cccc(OCc5ncc(OCC(F)F)s5)n4)cc3F)n(C[C@@H]3CCO3)c2c1` [Example 56, (S)-2-(4-(6-((5-(2,2-difluoroethoxy)thiazol-2-yl)methoxy)pyridin-2-yl)-2,5-difluorobenzyl)-1-(oxetan-2-ylmethyl)-1H-benzo[d]imidazole-6-carboxylic acid], the EC50 was found to be 7.19 nM. Consider `Cn1cc(-c2ncc(COc3cccc(-c4cc(F)c(Cc5nc6ccc(C(=O)O)cc6n5C[C@@H]5CCO5)cc4F)n3)s2)cn1` [Example 355, (S)-2-(2,5-difluoro-4-(6-((2-(1-methyl-1H-pyrazol-4-yl)thiazol-5-yl)methoxy)pyridin-2-yl)benzyl)-1-(oxetan-2-ylmethyl)-1H-benzo[d]imidazole-6-carboxylic acid], for which the EC50 came out at 0.355 nM. `NC(=O)c1cc(F)c(COc2cccc(-c3cc(F)c(Cc4nc5ccc(C(=O)O)cc5n4C[C@@H]4CCO4)cc3F)n2)cc1F` [Example 172, (S)-2-(4-(6-((4-carbamoyl-2,5-difluorobenzyl)oxy)pyridin-2-yl)-2,5-difluorobenzyl)-1-(oxetan-2-ylmethyl)-1H-benzo[d]imidazole-6-carboxylic acid] gave an EC50 of 2.57 nM.

`O=C(O)c1ccc2nc(Cc3cc(F)c(-c4cccc(OCc5cnc(C(=O)NCC(F)(F)F)cc5Cl)n4)cc3F)n(C[C@@H]3CCO3)c2c1` [Example 191, (S)-2-(4-(6-((4-chloro-6-((2,2,2-trifluoroethyl)carbamoyl)pyridin-3-yl)methoxy)pyridin-2-yl)-2,5-difluorobenzyl)-1-(oxetan-2-ylmethyl)-1H-benzo[d]imidazole-6-carboxylic acid] yielded an EC50 of 0.69 nM.

Consider `O=C(O)c1ccc2nc(Cc3cc(F)c(-c4cccc(OCc5cnc(C(=O)NC6CCC6)cc5F)n4)cc3F)n(C[C@@H]3CCO3)c2c1` [Example 246, (S)-2-(4-(6-((6-(cyclobutylcarbamoyl)-4-fluoropyridin-3-yl)methoxy)pyridin-2-yl)-2,5-difluorobenzyl)-1-(oxetan-2-ylmethyl)-1H-benzo[d]imidazole-6-carboxylic acid], for which the EC50 was 0.57 nM. The value for `CC(F)(F)c1cnc(COc2nc(-c3cc(F)c(Cc4nc5c(F)cc(C(=O)O)cc5n4[C@@H]4COCC4(C)C)cc3F)ccc2F)s1` [Example 338, (S)-2-(4-(6-((5-(1,1-difluoroethyl)thiazol-2-yl)methoxy)-5-fluoropyridin-2-yl)-2,5-difluorobenzyl)-1-(4,4-dimethyltetrahydrofuran-3-yl)-4-fluoro-1H-benzo[d]imidazole-6-carboxylic acid] was 0.218 nM. Take `NC(=O)c1csc(COc2cccc(-c3cc(F)c(Cc4nc5ccc(C(=O)O)cc5n4C[C@@H]4CCO4)cc3F)n2)n1` [Example 5, (S)-2-(4-(6-((4-carbamoylthiazol-2-yl)methoxy)pyridin-2-yl)-2,5-difluorobenzyl)-1-(oxetan-2-ylmethyl)-1H-benzo[d]imidazole-6-carboxylic acid]: the EC50 amounted to 0.5 nM. For `CCOc1nnc(COc2nc(-c3cc(F)c(Cc4nc5c(F)cc(C(=O)O)cc5n4[C@@H]4COCC4(C)C)cc3F)ccc2F)s1` [Example 423, (S)-1-(4,4-dimethyltetrahydrofuran-3-yl)-2-(4-(6-((5-ethoxy-1,3,4-thiadiazol-2-yl)methoxy)-5-fluoropyridin-2-yl)-2,5-difluorobenzyl)-4-fluoro-1H-benzo[d]imidazole-6-carboxylic acid], the EC50 worked out at 0.023 nM.

Molecule `O=C(O)c1ccc2nc(Cc3cc(F)c(-c4cccc(OCc5ncc(C#Cc6cncs6)s5)n4)cc3F)n(C[C@@H]3CCO3)c2c1` [Example 116, (S)-2-(2,5-difluoro-4-(6-((5-(thiazol-5-ylethynyl)thiazol-2-yl)methoxy)pyridin-2-yl)benzyl)-1-(oxetan-2-ylmethyl)-1H-benzo[d]imidazole-6-carboxylic acid] showed an EC50 of 0.15 nM. Consider `O=C(O)c1ccc2nc(Cc3cc(F)c(-c4cccc(OCc5ncc(C#CC6(C(F)(F)F)CC6)s5)n4)cc3F)n(C[C@@H]3CCO3)c2c1` [Example 335, (S)-2-(2,5-difluoro-4-(6-((5-((1-(trifluoromethyl)cyclopropyl)ethynyl)thiazol-2-yl)methoxy)pyridin-2-yl)benzyl)-1-(oxetan-2-ylmethyl)-1H-benzo[d]imidazole-6-carboxylic acid], for which the EC50 was 0.202 nM. For the molecule `Cn1cc(C#Cc2ccc(COc3cccc(-c4cc(F)c(Cc5nc6ccc(C(=O)O)cc6n5C[C@@H]5CCO5)cc4F)n3)c(Cl)n2)cn1` [Example 363, (S)-2-(4-(6-((2-chloro-6-((1-methyl-1H-pyrazol-4-yl)ethynyl)pyridin-3-yl)methoxy)pyridin-2-yl)-2,5-difluorobenzyl)-1-(oxetan-2-ylmethyl)-1H-benzo[d]imidazole-6-carboxylic acid], the EC50 amounted to 0.295 nM.

`O=C(O)c1ccc2nc(Cc3cc(F)c(-c4cccc(OCc5cn(C6CC6)nn5)n4)cc3F)n(C[C@@H]3CCO3)c2c1` [Example 210, 2-[[4-[6-[(1-cyclopropyltriazol-4-yl)methoxy]-2-pyridyl]-2,5-difluoro-phenyl]methyl]-3-[[(2S)-oxetan-2-yl]methyl]benzimidazole-5-carboxylic acid] registered an EC50 of 15.7 nM.

As for `O=C(O)c1ccc2nc(Cc3cc(F)c(-c4cccc(OCc5ncc(-c6cnn(C7CC7)c6)s5)n4)cc3F)n(C[C@@H]3CCO3)c2c1` [Example 90, (S)-2-(4-(6-((5-(1-cyclopropyl-1H-pyrazol-4-yl)thiazol-2-yl)methoxy)pyridin-2-yl)-2,5-difluorobenzyl)-1-(oxetan-2-ylmethyl)-1H-benzo[d]imidazole-6-carboxylic acid], the EC50 was 0.21 nM. Next, `O=C(O)c1ccc2nc(Cc3cc(F)c(-c4cccc(OCc5ncc(C#Cc6ccc(F)cc6)cc5F)n4)cc3F)n(C[C@@H]3CCO3)c2c1` [Example 284, (S)-2-(2,5-difluoro-4-(6-((3-fluoro-5-((4-fluorophenyl)ethynyl)pyridin-2-yl)methoxy)pyridin-2-yl)benzyl)-1-(oxetan-2-ylmethyl)-1H-benzo[d]imidazole-6-carboxylic acid]: 0.183 nM; `O=C(O)c1ccc2nc(Cc3cc(F)c(-c4cccc(OCc5cn6ccncc6n5)n4)cc3F)n(C[C@@H]3CCO3)c2c1` [Example 33, (S)-2-(2,5-difluoro-4-(6-(imidazo[1,2-a]pyrazin-2-ylmethoxy)pyridin-2-yl)benzyl)-1-(oxetan-2-ylmethyl)-1H-benzo[d]imidazole-6-carboxylic acid]: 1.75 nM. With `Cn1nccc1COc1cccc(-c2cc(F)c(Cc3nc4ccc(C(=O)O)cc4n3C[C@@H]3CCO3)cc2F)n1` [Example 36, (S)-2-(2,5-difluoro-4-(6-((1-methyl-1H-pyrazol-5-yl)methoxy)pyridin-2-yl)benzyl)-1-(oxetan-2-ylmethyl)-1H-benzo[d]imidazole-6-carboxylic acid], the response was half-maximal at 5.28 nM (EC50).

Molecule `CC1(C#Cc2ccc(COc3cccc(-c4cc(F)c(Cc5nc6ccc(C(=O)O)cc6n5C[C@@H]5CCO5)cc4F)n3)s2)COC1` [Example 113, (S)-2-(2,5-difluoro-4-(6-((5-((3-methyloxetan-3-yl)ethynyl)thiophen-2-yl)methoxy)pyridin-2-yl)benzyl)-1-(oxetan-2-ylmethyl)-1H-benzo[d]imidazole-6-carboxylic acid] displayed an EC50 of 0.16 nM. In turn, `C[C@@H](C#N)NC(=O)c1cc(Cl)c(COc2cccc(-c3cc(F)c(Cc4nc5ccc(C(=O)O)cc5n4C[C@@H]4CCO4)cc3F)n2)cn1` [Example 201, 2-(4-(6-((4-chloro-6-(((S)-1-cyanoethyl)carbamoyl)pyridin-3-yl)methoxy)pyridin-2-yl)-2,5-difluorobenzyl)-1-(((S)-oxetan-2-yl)methyl)-1H-benzo[d]imidazole-6-carboxylic acid] displayed an EC50 of 0.39 nM.
